From patent publication US8211937B2, “7-pyrollyl 9-aminoacyl tetracycline compounds and methods of use thereof” (Paratek Pharmaceuticals, Inc., priority 2001, dated 2012)
≈ marks a conversion by molar mass, not a printed value.

Assays:
Assay in all cases: MIC, broth microdilution growth inhibition
Format in all cases: cell-based
Settings in all cases: Mueller-Hinton broth, 37° C., 18 h, unit assumed
A. calcoaceticus 1726 = tested on: A. calcoaceticus 1726
Experimental: (§1) Growth inhibitory activity was determined on liquid medium by the antibiotic dilution technique using 96-well microtiter system plates containing two-fold dilutions of antibiotic-agent in 0.2 ml. of Mueller-Hinton broth. Plates were inoculated with each test organism to yield a final inoculum of 5×10^5 CFU/ml and were incubated aerobically at 37° C. for 18 h. The MIC was defined as the lowest concentration of antibacterial agent that inhibited development of visible growth in the microdilution wells. GAR936 can be prepared e.g. as in J. Med Chem 1994, 37 184-188. Minocyline is available from e.g. Aldrich.

E. coli 851E = tested on: E. coli 851E
Experimental: as §1

E. coli 851ML308-225 = tested on: E. coli 851ML308-225
Experimental: as §1

E. coli D1-209 Tet R = tested on: E. coli D1-209 Tet R
Experimental: as §1

E. coli D1-299 Tet R = tested on: E. coli D1-299 Tet R
Experimental: as §1

E. faecalis 73 Tet R = tested on: E. faecalis 73 Tet R
Experimental: as §1

E. faecalis ATCC 29212 = tested on: E. faecalis ATCC 29212
Experimental: as §1

E. faecium 494 = tested on: E. faecium 494
Experimental: as §1

E. faecium 97 Tet R = tested on: E. faecium 97 Tet R
Experimental: as §1

H. influenzae ATCC 4927 = tested on: H. influenzae ATCC 4927
Experimental: as §1

K. Pneumoniae 3226 = tested on: K. Pneumoniae 3226
Experimental: as §1

[1] = tested on: M. catarrhalis ATCC 23246
Experimental: as §1

P. aeruginosa 3808 = tested on: P. aeruginosa 3808
Experimental: as §1

S. aureus ATCC 29213 = tested on: S. aureus ATCC 29213
Experimental: as §1

S. aureus GFX01596 Tet R = tested on: S. aureus GFX01596 Tet R
Experimental: as §1

S. pneumoniae 157 = tested on: S. pneumoniae 157
Experimental: as §1

[2] = tested on: S. pneumoniae GFX01778 Tet R
Experimental: as §1

| SMILES | MIC (A. calcoaceticus 1726) [µg/mL] | MIC (E. coli 851E) [µg/mL] | MIC (E. coli 851ML308-225) [µg/mL] | MIC (E. coli D1-209 Tet R) [µg/mL] | MIC (E. coli D1-299 Tet R) [µg/mL] | MIC (E. faecalis 73 Tet R) [µg/mL] | MIC (E. faecalis ATCC 29212) [µg/mL] | MIC (E. faecium 494) [µg/mL] | MIC (E. faecium 97 Tet R) [µg/mL] | MIC (H. influenzae ATCC 4927) [µg/mL] | MIC (K. Pneumoniae 3226) [µg/mL] | MIC [1] [ng/mL] | MIC (P. aeruginosa 3808) [µg/mL] | MIC (S. aureus ATCC 29213) [µg/mL] | MIC (S. aureus GFX01596 Tet R) [µg/mL] | MIC (S. pneumoniae 157) [µg/mL] | MIC [2] [µg/mL] |
| --- | --- | --- | --- | --- | --- | --- | --- | --- | --- | --- | --- | --- | --- | --- | --- | --- | --- |
| CN(C)[C@@H]1C(O)=C(C(N)=O)C(=O)[C@@]2(O)C(O)=C3C(=O)c4c(O)ccc(-n5ccc(C#N)c5)c4C[C@H]3C[C@@H]12 [Compound A, [4S-(4aα,5aα,12aα)]-7-(3-Cyanopyrrol-1-yl)-4-(Dimethylamino)-1,4,4a,5,5a,6,11,12a-octahydro-3,10,12,12a-tetrahydroxy-1,11-dioxo-2-naphthacenecarboxamide] | 8 (≈ 15.9 µM) | 1 (≈ 1.98 µM) | 0.5 (≈ 0.991 µM) | 16 (≈ 31.7 µM) | 4 (≈ 7.93 µM) | 4 (≈ 7.93 µM) | 2 (≈ 3.96 µM) | 8 (≈ 15.9 µM) | 8 (≈ 15.9 µM) | 0.5 (≈ 0.991 µM) | > 128 | 1 (≈ 0.00198 µM) | > 128 | 0.015 (≈ 0.0297 µM) | 0.5 (≈ 0.991 µM) | 0.015 (≈ 0.0297 µM) | 2 (≈ 3.96 µM) |
| CN(C)[C@@H]1C(O)=C(C(N)=O)C(=O)[C@@]2(O)C(O)=C3C(=O)c4c(O)ccc(-n5ccc(C=O)c5)c4C[C@H]3C[C@@H]12 [Compound B, [4S-(4aα,5aα,12aα)]-4-(Dimethylamino)-7-(1H-pyrrol-1-yl-3-carboxaldehyde)-1,4,4a,5,5a,6,11,12a-octahydro-3,10,12,12a-tetrahydroxy-1,11-dioxo-2-naphthacenecarboxamide] | > 128 | 1 (≈ 1.97 µM) | 0.5 (≈ 0.985 µM) | > 128 | 32 (≈ 63.1 µM) | 8 (≈ 15.8 µM) | 2 (≈ 3.94 µM) | 32 (≈ 63.1 µM) | > 128 | 1 (≈ 1.97 µM) | > 128 | 8 (≈ 0.0158 µM) | > 128 | 0.015 (≈ 0.0296 µM) | 0.25 (≈ 0.493 µM) | 0.015 (≈ 0.0296 µM) | 2 (≈ 3.94 µM) |
| CN(C)CC(=O)Nc1cc(-n2ccc(C=O)c2)c2c(c1O)C(=O)C1=C(O)[C@]3(O)C(=O)C(C(N)=O)=C(O)[C@@H](N(C)C)[C@@H]3C[C@@H]1C2 [Compound C] | 16 (≈ 26.3 µM) | 1 (≈ 1.65 µM) | 0.03 (≈ 0.0494 µM) | 1 (≈ 1.65 µM) | 16 (≈ 26.3 µM) | 0.004 (≈ 0.00658 µM) | 0.125 (≈ 0.206 µM) | 0.25 (≈ 0.411 µM) | 0.06 (≈ 0.0987 µM) | 1 (≈ 1.65 µM) | 125 (≈ 206 µM) | 2 (≈ 0.00329 µM) | 32 (≈ 52.7 µM) | 0.125 (≈ 0.206 µM) | 4 (≈ 6.58 µM) | 0.015 (≈ 0.0247 µM) | 0.03 (≈ 0.0494 µM) |
| CN(C)c1cc(NC(=O)CNC(C)(C)C)c(O)c2c1C[C@H]1C[C@H]3[C@H](N(C)C)C(O)=C(C(N)=O)C(=O)[C@@]3(O)C(O)=C1C2=O [GAR-936] | 32 (≈ 54.6 µM) | 1 (≈ 1.71 µM) | – | 0.5 (≈ 0.854 µM) | 0.5 (≈ 0.854 µM) | 0.5 (≈ 0.854 µM) | 0.5 (≈ 0.854 µM) | 0.5 (≈ 0.854 µM) | 0.5 (≈ 0.854 µM) | 1 (≈ 1.71 µM) | 2 (≈ 3.41 µM) | 120 (≈ 0.205 µM) | 32 (≈ 54.6 µM) | 0.5 (≈ 0.854 µM) | 1 (≈ 1.71 µM) | 0.25 (≈ 0.427 µM) | 0.06 (≈ 0.102 µM) |
| CN(C)c1ccc(O)c2c1C[C@H]1C[C@H]3[C@H](N(C)C)C(=O)C(C(N)=O)=C(O)[C@@]3(O)C(=O)C1=C2O [MINO, Minocyline] | 1 (≈ 2.19 µM) | 0.5 (≈ 1.09 µM) | 0.25 (≈ 0.546 µM) | 16 (≈ 35 µM) | 1 (≈ 2.19 µM) | 32 (≈ 69.9 µM) | 2 (≈ 4.37 µM) | 32 (≈ 69.9 µM) | 32 (≈ 69.9 µM) | 0.5 (≈ 1.09 µM) | 32 (≈ 69.9 µM) | 1 (≈ 0.00219 µM) | 16 (≈ 35 µM) | 0.03 (≈ 0.0656 µM) | 0.12 (≈ 0.262 µM) | 0.5 (≈ 1.09 µM) | 16 (≈ 35 µM) |
